Values quoted from earlier work in article PMC9851200, “Multiparameter phenotypic screening for endogenous TFEB and TFE3 translocation identifies novel chemical series modulating lysosome function” (Autophagy, 2022).

What was measured:
Parameters in all cases: method as in original PKIS2 published data
[1] = biological target: T1, kinases (KINOMEscan panel) (Homo sapiens, UniProt Q9NRH2); details: kinase SNRK; Published KINOMEscan; ref original PKIS2 published data; cited from earlier work
T1 sequence (Q9NRH2 1-765): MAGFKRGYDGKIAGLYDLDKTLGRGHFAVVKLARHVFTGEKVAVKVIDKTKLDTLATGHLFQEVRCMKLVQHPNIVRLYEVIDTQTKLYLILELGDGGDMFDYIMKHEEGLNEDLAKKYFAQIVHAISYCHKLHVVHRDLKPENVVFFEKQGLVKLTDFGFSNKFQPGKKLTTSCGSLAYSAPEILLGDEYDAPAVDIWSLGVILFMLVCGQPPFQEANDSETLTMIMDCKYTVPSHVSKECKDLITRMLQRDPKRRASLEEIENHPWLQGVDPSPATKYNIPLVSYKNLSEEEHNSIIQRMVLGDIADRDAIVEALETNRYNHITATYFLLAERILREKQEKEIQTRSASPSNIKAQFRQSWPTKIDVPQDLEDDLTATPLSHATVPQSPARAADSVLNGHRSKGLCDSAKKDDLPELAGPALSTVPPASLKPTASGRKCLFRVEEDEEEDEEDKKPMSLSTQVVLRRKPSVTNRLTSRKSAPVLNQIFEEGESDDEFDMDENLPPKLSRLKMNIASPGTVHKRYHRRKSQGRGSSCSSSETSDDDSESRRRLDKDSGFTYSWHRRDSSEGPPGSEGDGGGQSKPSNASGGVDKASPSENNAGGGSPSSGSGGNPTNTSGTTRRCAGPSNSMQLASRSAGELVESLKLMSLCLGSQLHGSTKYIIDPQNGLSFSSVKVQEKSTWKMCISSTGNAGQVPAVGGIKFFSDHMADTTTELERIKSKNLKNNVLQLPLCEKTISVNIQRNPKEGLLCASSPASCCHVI

[2] = biological target: kinases (KINOMEscan panel) (Homo sapiens, UniProt Q9Y4K4); details: kinase MAP4K5; Published KINOMEscan; ref original PKIS2 published data; cited from earlier work
Sequence of kinases (KINOMEscan panel) (Homo sapiens, UniProt Q9Y4K4) (Q9Y4K4 whole entry): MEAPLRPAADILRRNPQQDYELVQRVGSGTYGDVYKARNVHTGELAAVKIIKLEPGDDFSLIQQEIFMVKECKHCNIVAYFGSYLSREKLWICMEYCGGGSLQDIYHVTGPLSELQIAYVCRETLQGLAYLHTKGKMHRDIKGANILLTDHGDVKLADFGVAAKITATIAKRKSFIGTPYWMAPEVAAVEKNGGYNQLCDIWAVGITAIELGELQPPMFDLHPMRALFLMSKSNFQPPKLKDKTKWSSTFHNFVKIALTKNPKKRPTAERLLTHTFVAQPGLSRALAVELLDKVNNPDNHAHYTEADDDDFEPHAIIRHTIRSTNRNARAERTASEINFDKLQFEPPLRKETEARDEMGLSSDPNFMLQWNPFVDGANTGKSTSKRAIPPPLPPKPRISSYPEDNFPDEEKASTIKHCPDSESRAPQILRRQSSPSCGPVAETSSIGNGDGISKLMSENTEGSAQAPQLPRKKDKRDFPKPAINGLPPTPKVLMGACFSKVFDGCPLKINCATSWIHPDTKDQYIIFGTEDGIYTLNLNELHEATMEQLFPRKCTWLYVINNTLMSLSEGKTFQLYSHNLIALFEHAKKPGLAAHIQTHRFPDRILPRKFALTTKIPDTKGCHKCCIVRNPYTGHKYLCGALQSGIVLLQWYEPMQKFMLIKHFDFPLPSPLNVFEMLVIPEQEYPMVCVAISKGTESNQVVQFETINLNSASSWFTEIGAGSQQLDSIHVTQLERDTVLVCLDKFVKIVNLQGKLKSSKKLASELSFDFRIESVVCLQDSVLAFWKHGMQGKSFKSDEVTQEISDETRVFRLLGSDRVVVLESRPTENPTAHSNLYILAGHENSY

[3] = biological target: T2, kinases (KINOMEscan panel) (Homo sapiens, UniProt P57058); details: kinase HUNK; Published KINOMEscan; ref original PKIS2 published data; cited from earlier work
T2 sequence (P57058 1-714): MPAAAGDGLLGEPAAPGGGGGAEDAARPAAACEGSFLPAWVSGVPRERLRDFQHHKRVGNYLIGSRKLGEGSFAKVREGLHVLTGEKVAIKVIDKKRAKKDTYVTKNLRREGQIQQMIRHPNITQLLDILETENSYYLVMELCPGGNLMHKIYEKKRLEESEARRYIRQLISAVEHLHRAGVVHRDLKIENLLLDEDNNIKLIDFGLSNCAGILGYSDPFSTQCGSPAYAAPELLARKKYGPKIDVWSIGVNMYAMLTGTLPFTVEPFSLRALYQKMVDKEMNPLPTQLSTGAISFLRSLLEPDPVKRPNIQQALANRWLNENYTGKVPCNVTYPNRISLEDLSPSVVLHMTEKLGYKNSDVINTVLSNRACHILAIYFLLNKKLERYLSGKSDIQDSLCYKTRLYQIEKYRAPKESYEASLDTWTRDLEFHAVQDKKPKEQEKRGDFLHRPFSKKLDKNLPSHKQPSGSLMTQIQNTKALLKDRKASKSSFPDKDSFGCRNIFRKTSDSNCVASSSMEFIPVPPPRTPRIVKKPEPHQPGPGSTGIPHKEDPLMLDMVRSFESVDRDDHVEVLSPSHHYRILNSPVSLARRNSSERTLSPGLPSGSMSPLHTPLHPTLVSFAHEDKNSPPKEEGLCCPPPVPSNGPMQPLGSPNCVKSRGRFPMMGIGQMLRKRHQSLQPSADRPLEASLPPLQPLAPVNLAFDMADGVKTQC

[4] = biological target: kinases (KINOMEscan panel) (Homo sapiens, UniProt Q9UIK4); details: kinase DAPK2; Published KINOMEscan; ref original PKIS2 published data; cited from earlier work
Sequence of kinases (KINOMEscan panel) (Homo sapiens, UniProt Q9UIK4) (Q9UIK4 whole entry): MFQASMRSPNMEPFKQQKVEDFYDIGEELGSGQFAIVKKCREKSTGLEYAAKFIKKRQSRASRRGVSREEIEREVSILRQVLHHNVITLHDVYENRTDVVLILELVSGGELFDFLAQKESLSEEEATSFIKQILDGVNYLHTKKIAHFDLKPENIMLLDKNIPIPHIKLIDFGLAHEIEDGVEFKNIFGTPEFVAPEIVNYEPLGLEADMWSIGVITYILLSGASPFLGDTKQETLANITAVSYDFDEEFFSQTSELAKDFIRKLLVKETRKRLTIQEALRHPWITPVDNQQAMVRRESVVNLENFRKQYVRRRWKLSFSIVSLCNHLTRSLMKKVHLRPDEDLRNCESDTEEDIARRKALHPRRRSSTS

[5] = biological target: kinases (KINOMEscan panel) (Homo sapiens, UniProt Q00526); details: CDK3; Published KINOMEscan; ref original PKIS2 published data; cited from earlier work
Sequence of kinases (KINOMEscan panel) (Homo sapiens, UniProt Q00526) (Q00526 whole entry): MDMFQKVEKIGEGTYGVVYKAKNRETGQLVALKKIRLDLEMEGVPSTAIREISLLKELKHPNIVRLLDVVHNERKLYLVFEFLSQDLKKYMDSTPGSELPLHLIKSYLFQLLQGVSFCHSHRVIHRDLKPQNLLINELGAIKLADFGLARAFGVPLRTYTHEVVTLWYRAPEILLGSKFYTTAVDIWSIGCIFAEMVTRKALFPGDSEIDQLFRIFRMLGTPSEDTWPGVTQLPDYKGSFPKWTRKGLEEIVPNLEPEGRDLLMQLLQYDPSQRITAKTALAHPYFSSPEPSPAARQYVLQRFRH

[6] = biological target: kinases (KINOMEscan panel) (Homo sapiens, UniProt Q14004); details: cited from earlier work
Sequence of kinases (KINOMEscan panel) (Homo sapiens, UniProt Q14004) (Q14004 whole entry): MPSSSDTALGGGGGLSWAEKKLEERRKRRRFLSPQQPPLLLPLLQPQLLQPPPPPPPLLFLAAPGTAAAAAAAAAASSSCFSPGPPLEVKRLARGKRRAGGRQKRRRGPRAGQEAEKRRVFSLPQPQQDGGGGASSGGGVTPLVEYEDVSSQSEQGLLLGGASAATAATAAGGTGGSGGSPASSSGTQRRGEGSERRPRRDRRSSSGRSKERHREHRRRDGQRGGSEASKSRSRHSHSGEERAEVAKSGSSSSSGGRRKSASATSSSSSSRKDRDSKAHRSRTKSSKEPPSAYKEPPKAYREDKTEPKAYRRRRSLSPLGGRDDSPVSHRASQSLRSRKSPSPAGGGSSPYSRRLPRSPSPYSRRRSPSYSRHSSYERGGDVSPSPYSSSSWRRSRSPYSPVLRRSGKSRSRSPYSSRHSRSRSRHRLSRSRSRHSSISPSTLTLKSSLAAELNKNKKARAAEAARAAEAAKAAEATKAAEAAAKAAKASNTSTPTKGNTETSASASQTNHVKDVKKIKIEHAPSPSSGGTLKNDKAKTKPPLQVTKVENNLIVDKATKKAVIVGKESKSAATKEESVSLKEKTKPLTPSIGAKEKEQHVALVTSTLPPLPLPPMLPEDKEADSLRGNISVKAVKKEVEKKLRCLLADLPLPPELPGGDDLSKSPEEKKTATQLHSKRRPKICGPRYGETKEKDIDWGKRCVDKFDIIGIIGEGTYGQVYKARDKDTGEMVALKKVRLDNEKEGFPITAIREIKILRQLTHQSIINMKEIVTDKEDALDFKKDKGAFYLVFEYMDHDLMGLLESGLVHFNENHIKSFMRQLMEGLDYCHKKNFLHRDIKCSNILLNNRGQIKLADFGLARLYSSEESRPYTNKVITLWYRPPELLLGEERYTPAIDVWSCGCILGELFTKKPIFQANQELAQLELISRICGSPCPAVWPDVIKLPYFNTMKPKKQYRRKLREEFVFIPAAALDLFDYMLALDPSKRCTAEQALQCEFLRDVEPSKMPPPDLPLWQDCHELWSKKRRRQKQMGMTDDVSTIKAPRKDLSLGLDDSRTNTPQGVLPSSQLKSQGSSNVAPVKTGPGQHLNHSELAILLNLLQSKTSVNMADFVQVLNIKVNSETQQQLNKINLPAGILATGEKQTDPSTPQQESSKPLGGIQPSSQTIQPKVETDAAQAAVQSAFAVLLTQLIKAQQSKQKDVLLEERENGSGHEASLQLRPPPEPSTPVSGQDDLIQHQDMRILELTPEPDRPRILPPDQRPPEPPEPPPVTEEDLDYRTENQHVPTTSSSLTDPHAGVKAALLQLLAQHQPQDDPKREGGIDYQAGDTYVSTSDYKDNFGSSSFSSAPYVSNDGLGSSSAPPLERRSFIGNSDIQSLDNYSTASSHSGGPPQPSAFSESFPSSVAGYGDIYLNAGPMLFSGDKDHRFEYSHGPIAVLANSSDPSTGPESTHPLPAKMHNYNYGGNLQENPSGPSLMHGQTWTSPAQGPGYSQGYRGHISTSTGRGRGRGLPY

[7] = biological target: kinases (KINOMEscan panel) (Homo sapiens, UniProt P04626); details: kinase ERBB2; Published KINOMEscan; ref original PKIS2 published data; cited from earlier work
Sequence of kinases (KINOMEscan panel) (Homo sapiens, UniProt P04626) (P04626 23-1255): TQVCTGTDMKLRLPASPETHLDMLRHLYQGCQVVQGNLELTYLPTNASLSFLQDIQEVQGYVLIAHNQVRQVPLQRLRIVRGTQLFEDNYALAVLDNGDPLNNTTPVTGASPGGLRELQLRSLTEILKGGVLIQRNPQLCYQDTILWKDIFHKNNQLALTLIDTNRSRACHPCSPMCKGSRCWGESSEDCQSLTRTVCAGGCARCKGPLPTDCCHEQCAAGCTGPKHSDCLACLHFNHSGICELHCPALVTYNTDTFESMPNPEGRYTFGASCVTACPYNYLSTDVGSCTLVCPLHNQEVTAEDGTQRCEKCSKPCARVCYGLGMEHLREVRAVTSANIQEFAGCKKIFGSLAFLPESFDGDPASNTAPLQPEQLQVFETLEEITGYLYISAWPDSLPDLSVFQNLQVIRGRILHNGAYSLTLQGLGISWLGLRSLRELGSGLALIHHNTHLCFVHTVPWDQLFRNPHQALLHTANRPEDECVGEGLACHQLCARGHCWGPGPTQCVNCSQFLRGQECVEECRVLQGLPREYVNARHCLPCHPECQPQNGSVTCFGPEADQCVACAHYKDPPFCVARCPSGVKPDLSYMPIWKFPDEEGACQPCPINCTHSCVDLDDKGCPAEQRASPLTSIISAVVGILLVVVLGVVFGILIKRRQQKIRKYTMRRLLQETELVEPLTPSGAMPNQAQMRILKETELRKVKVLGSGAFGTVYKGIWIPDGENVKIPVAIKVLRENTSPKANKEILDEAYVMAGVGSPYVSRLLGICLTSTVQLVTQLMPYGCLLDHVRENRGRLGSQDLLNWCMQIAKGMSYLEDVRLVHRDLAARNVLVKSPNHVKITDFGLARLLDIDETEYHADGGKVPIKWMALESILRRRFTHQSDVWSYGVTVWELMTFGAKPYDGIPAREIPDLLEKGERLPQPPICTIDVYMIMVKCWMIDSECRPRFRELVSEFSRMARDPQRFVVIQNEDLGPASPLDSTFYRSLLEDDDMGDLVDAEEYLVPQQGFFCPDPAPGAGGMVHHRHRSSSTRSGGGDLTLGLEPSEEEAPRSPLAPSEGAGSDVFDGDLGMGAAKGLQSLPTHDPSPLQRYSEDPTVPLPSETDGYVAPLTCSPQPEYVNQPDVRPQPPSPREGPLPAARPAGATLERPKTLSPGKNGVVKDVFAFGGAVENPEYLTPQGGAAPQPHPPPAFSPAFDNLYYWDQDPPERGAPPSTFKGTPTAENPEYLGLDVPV

[8] = biological target: kinases (KINOMEscan panel) (Homo sapiens, UniProt Q9HAZ1); details: kinase CLK4; Published KINOMEscan; ref original PKIS2 published data; cited from earlier work
Sequence of kinases (KINOMEscan panel) (Homo sapiens, UniProt Q9HAZ1) (Q9HAZ1 whole entry): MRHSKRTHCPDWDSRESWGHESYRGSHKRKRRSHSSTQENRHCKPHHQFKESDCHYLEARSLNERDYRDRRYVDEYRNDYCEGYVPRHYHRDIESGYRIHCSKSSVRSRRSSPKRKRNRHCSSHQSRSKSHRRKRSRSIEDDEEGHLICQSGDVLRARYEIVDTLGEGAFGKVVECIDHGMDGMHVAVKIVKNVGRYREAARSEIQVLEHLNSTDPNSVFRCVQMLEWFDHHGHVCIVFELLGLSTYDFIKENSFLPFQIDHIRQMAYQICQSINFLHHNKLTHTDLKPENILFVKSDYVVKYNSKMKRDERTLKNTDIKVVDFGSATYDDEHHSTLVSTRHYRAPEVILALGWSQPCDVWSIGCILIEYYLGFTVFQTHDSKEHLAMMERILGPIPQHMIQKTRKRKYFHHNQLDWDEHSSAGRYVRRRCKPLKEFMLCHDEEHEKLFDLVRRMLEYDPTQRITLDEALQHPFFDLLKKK

## Cc1cccc(-c2nc(Nc3ccncc3)c3ccccc3n2)n1 [NK215]
[1]
  KINOMEscan SNRK: 0
[2]
  KINOMEscan MAP4K5: 0
[3]
  KINOMEscan HUNK: 0
[4]
  KINOMEscan DAPK2: 7
[5]
  KINOMEscan CDK3: 20
[6]
  KINOMEscan CDK13: 0
[7]
  KINOMEscan ERBB2: 7
[8]
  KINOMEscan CLK4: 0
